Measured values published in paper PMC9154192 (PLoS Biology, 2022).
In brackets after ≈: the same amount, converted by molar mass. Several values for one entry are separate records, joined by “and”; a condition that tells them apart may be missing. Equal values may be shown once. Read-outs that look alike come from different tables or passages of the source.

What was measured:
[1] = test system: M. marseiliense; assay: microbe, parasite or virus in culture; assay type: cell-based; details: Mycobacterium
[2] = test system: M. aubagnense; assay: microbe, parasite or virus in culture; assay type: cell-based, Mycobacterium aubagnense; details: Mycolicibacterium aubagnense
[3] = test system: M. tuberculosis H37Rv; assay: microbe, parasite or virus in culture; assay type: cell-based, Mycobacterium tuberculosis; details: for MIC: Mycobacterium tuberculosis, H37RV, read-out: MIC
[4] = test system: M. bolletii; assay: microbe, parasite or virus in culture; assay type: cell-based, Mycobacterium bolletii; details: Mycobacteroides abscessus
[5] = test system: XDR M. tuberculosis (KMRC 00203–00197); assay type: cell-based, Mycobacterium tuberculosis; details: for log reduction (CFU): 7 days
[6] = test system: M. marinum; assay: microbe, parasite or virus in culture; assay type: cell-based; details: Mycobacterium marinum
[7] = test system: M. heraklionease; assay: microbe, parasite or virus in culture; assay type: cell-based; details: Mycobacterium
[8] = test system: M. abscessus; assay: microbe, parasite or virus in culture; assay type: cell-based, Mycobacterium abscessus; details: Mycobacteroides abscessus
[9] = in vitro; assay type: cell-based, murine; details: mouse
Experimental: (§1) A549 human pulmonary epithelial cells (KCLB 10185), human embryonic kidney (HEK) 293 cells (KCLB 21573), human THP-1 leukemia cells (KCLB 40202), human neuroblastoma SH-SY5Y cells (KCLB 22266), Murine Raw 264.7 macrophages (KCLB 40071), and L929 murine fibroblasts (KCLB 10001) were purchased from the KCLB (Seoul, Korea). Cytotoxicity testing was performed using the MTT assay and the WST-1 cell viability assay as previously described.

[10] = test system: M. szulgai; assay: microbe, parasite or virus in culture; assay type: cell-based; details: Mycobacterium szulgai
[11] = test system: M. kyorinense; assay: microbe, parasite or virus in culture; assay type: cell-based; details: Mycobacterium kyorinense
[12] = test system: M. tuberculosis H37Ra; assay: microbe, parasite or virus in culture; assay type: cell-based, Mycobacterium tuberculosis; details: Mycobacterium tuberculosis, H37RA
[13] = test system: M. peregrinum; assay: microbe, parasite or virus in culture; assay type: cell-based, Mycobacterium peregrinum; details: Mycolicibacterium peregrinum
[14] = test system: M. bovis; assay: microbe, parasite or virus in culture; assay type: cell-based; details: Mycobacterium tuberculosis variant bovis
[15] = test system: M. kansasii; assay: microbe, parasite or virus in culture; assay type: cell-based; details: Mycobacterium kansasii
[16] = test system: M. arupense; assay: microbe, parasite or virus in culture; assay type: cell-based, Mycobacterium arupense; details: Mycolicibacter arupensis
[17] = test system: M. gordonae; assay: microbe, parasite or virus in culture; assay type: cell-based; details: Mycobacterium gordonae
[18] = test system: M. xenopi; assay: microbe, parasite or virus in culture; assay type: cell-based; details: Mycobacterium xenopi
[19] = in vitro; assay type: cell-based; details: human
Experimental: as §1

[20] = test system: M. smegmatis; assay: microbe, parasite or virus in culture; assay type: cell-based, Mycobacterium smegmatis; details: Mycolicibacterium smegmatis
[21] = test system: intestinal microbiome; assay: Gut microbiome, 16s rRNA gene-based metagenomics analysis of feces; assay type: in vivo, BALB/c mice; details: mouse, in vivo
Experimental: Six-week-old BALB/c female mice were used for this study (6 mice for each group). Each drug was administered orally at 30 mg/kg once daily for 7 days. Stool was collected, and 16 rRNA gene-based metagenomics analysis was performed. Corn oil was used as the vehicle. The drug-free group received corn oil only. This animal experiment was conducted with the approval of the IACUC of the Soonchunhyang University (approval number: SCH21-0011). Microbiome analysis of collected feces was carried out as previously described with some modifications. Total DNA was extracted from the stool using the QIAamp DNA stool mini kit (Qiagen, Germany) after mechanical disruption using lysing matrix B tubes (MP Biomedicals, USA). V4 region of 16S RNA gene was amplified from extracted DNA with the following primers: forward primer ([…]) and reverse primer ([…]). PCR was performed using the Kappa HiFi hot start kit (KAPA Biosystems, USA) for 16s gene amplification and library preparation. A dsDNA HS assay kit and Qubit 4 fluorimeter (Invitrogen, USA) were used for DNA quantification. After each step, quality was checked using Agilent High Sensitivity DNA Kit and Agilent Bioanalyzer 2100 (Agilent Technologies, USA). Clean-up was performed using AMPure XP beads (Beckman Coulter, UK). The metagenomic library was prepared using a Nextera XT DNA Library Prep Kit (Illumina, USA) and loaded into an iSeq-100 reagent cartridge (Illumina, USA) together with a PhiX Control library (Illumina, USA). A 300-bp paired-end sequencing was performed on an iSeq-100 platform (Illumina, USA). Sequencing data were analyzed using the EzBioCloud server (Chunlab, Korea).

SMILES | MIC [1] [µg/mL] | MIC [2] [µg/mL] | MIC [3] [µg/mL] | MIC [4] [µg/mL] | CFU (log) [5] | CFU (replicates1-3), single values [5] | MIC [6] [µg/mL] | MIC [7] [µg/mL] | MIC [8] [µg/mL] | CC50 ([9]; L929) [µg/mL] | CC50 ([9]; Raw264.7) [µg/mL] | MIC [10] [µg/mL] | MIC [11] [µg/mL] | MIC [13] [µg/mL] | MIC [14] [µg/mL] | MIC [15] [µg/mL] | MIC [16] [µg/mL] | MIC [17] [µg/mL] | MIC [18] [µg/mL] | MIC [20] [µg/mL] | other results
COC(=O)[C@@H]1CCC(=O)N1Cc1cc2ccc(OCc3ccccc3)cc2c2cc(OC)c(OC)cc12 [PP3S, Methyl (S)-1-{[3-(Benzyloxy)-6,7-dimethoxy-9-phenanthryl]methyl}-5-oxopyrrolidine-2-carboxylate] | > 100 | > 100 | 1.6 (≈ 3.2 µM) | > 100 | 4.83 and 4.91 | 41000 CFU and 66100 CFU and 72200 CFU and 71300 CFU and 95100 CFU and 88700 CFU and 98900 CFU and 41200 CFU and 40500 CFU and 105000 CFU and 75800 CFU and 72700 CFU and 52300 CFU and 61000 CFU and 63200 CFU and 62900 CFU and 137000 CFU and 98200 CFU | > 100 | > 100 | > 100 | > 500 | > 500 | > 100 | > 100 | > 100 | 3.12 (≈ 6.25 µM) | > 100 | > 100 | > 100 | > 100 | > 100 | in vitro antitubercular activities (S-form vs R-form) [3]: had in vitro antitubercular activities; log reduction (CFU) ([5]; at 0.8 μg/ml): 0.5; log reduction (CFU) ([5]; at 1.6 μg/ml): 0.6; MIC [12]: 1.6 µg/mL (≈ 3.2 µM); CC50 ([19]; A549): > 500 µg/mL; CC50 ([19]; HEK-293): 7.8 µg/mL (≈ 15.6 µM); CC50 ([19]; SH-SY5Y): 7.8 µg/mL (≈ 15.6 µM); CC50 ([19]; THP-1): > 500 µg/mL
CO[C@H]1/C=C/O[C@@]2(C)Oc3c(C)c(O)c4c(O)c(c(/C=N/N5CCN(C)CC5)c(O)c4c3C2=O)NC(=O)/C(C)=C\C=C\[C@H](C)[C@H](O)[C@@H](C)[C@@H](O)[C@@H](C)[C@H](OC(C)=O)[C@@H]1C [RIF, rifampicin, reference compound] | > 100 | 1.6 (≈ 1.94 µM) | 0.1 (≈ 0.122 µM) | > 100 | 4.63 and 4.77 | 56400 CFU and 14000 CFU and 26700 CFU and 25200 CFU and 51000 CFU and 59000 CFU and 55000 CFU and 48000 CFU and 53000 CFU and 44900 CFU and 67000 CFU (2×) and 75100 CFU and 66500 CFU and 63000 CFU and 65000 CFU and 35000 CFU and 41000 CFU | < 0.1 | 0.2 (≈ 0.243 µM) | > 100 | > 500 | > 500 | < 0.1 | 50 (≈ 60.8 µM) | 25 (≈ 30.4 µM) | 0.1 (≈ 0.122 µM) | < 0.1 | 0.1 (≈ 0.122 µM) | 3.1 (≈ 3.77 µM) | 0.2 (≈ 0.243 µM) | 25 (≈ 30.4 µM) | log reduction (CFU) ([5]; at 12.5 μg/ml): 0.6; beta set-significance analysis, pair-wise comparison of gut microbiome [21]: significant; difference in phylum or class level taxa compared to drug-free group [21]: significant differences; phylogenetic diversity compared to drug-free control group [21]: significantly decreased; CC50 ([19]; A549): > 500 µg/mL; CC50 ([19]; HEK-293): > 500 µg/mL; CC50 ([19]; SH-SY5Y): > 500 µg/mL; CC50 ([19]; THP-1): > 500 µg/mL
[H]/N=C(/N)N[C@H]1[C@H](O)[C@@H](O)[C@H](O[C@@H]2O[C@@H](C)[C@](O)(C=O)[C@H]2O[C@@H]2O[C@@H](CO)[C@H](O)[C@@H](O)[C@@H]2NC)[C@@H](N/C(N)=N\[H])[C@@H]1O [STR, streptomycin] | 25 (≈ 43 µM) | > 100 | 0.4 (≈ 0.688 µM) | 25 (≈ 43 µM) |  |  | < 0.1 | 50 (≈ 86 µM) | 25 (≈ 43 µM) |  |  | 0.2 (≈ 0.344 µM) | 0.8 (≈ 1.38 µM) | 3.1 (≈ 5.33 µM) | 0.4 (≈ 0.688 µM) | 0.2 (≈ 0.344 µM) | 0.1 (≈ 0.172 µM) | 100 (≈ 172 µM) | 0.2 (≈ 0.344 µM) | 0.2 (≈ 0.344 µM) | 
